The values below come from patent US9902702B2, “Spirocycloheptanes as inhibitors of rock” (BRISTOL-MYERS SQUIBB COMPANY, priority 2014, dated 2018).

pIC50: −log10 of the molar value.

This assay deals with ROCK2 (Homo sapiens, UniProt O75116). The experiment in a line: ROCK assay: phosphorylation of FITC peptide substrate, LABCHIP 3000 mobility shift. Particulars: 5 μM ATP, 1.5 μM peptide substrate; read-out: ROCK2 Activity (ROCK IC50 range). The class given is biochemical. In outline:
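Rho kinase variant phosphorylates 1.5 μM FITC-AHA-AKRRRLSSLRA-OH with 5 μM ATP in 20 mM HEPES pH 7.5, 20 mM MgCl2, 0.015% Brij-35, 4 mM DTT, DMSO <2%. EDTA stops the reaction, and phospho and non-phospho peptides are resolved by LabChip 3000 mobility shift. IC50 from dose-response curve fit.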

Sequence of ROCK2 (O75116 whole entry, species assumed): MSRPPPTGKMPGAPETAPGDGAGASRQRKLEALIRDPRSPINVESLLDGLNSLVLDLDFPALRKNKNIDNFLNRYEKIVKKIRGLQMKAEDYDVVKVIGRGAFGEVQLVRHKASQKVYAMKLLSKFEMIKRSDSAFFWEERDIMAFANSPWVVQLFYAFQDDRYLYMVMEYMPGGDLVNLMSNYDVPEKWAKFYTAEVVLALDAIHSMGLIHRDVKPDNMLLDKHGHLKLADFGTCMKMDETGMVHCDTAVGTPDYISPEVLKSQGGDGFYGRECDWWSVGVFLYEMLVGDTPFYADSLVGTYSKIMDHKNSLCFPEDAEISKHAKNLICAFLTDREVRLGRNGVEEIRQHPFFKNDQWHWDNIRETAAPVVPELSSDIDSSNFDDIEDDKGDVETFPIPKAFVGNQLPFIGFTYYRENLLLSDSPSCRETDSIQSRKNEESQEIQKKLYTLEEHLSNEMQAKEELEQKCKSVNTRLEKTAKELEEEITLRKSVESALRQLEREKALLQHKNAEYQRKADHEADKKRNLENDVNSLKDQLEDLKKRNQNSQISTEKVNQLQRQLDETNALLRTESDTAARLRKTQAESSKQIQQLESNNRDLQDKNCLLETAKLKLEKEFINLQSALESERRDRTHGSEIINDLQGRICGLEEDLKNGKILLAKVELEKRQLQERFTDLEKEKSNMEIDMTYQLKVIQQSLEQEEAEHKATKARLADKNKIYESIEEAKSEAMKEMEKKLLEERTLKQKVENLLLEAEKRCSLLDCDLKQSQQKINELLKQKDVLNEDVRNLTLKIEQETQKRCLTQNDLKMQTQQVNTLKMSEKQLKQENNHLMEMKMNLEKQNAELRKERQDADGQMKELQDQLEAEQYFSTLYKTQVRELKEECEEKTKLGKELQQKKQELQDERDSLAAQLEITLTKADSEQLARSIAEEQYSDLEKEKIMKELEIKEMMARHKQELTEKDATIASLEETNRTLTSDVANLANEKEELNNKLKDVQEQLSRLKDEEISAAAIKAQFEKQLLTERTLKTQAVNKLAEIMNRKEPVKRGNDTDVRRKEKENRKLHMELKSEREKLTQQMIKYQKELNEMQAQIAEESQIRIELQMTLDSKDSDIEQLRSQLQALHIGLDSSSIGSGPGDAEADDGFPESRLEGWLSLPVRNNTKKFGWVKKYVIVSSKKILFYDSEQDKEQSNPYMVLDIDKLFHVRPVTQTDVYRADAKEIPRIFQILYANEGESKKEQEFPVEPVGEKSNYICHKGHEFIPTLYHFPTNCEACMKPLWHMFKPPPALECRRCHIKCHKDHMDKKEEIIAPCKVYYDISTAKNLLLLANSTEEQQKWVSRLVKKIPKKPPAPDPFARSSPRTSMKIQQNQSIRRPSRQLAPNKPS

The pIC50 is the IC50 on a negative log10 scale, so that one unit is a factor of ten. With `CC(C)(O)Cn1nc(C(=O)NC2CC3(C2)CC(F)(c2n[nH]c(=O)c4ccccc24)C3)c2ccc(F)cc21` (stereo not drawn) [Example 163, 6-fluoro-N-(6-fluoro-6-(4-oxo-3,4-dihydrophthalazin-1-yl)spiro[3.3]heptan-2-yl)-1-(2-hydroxy-2-methylpropyl)-1H-indazole-3-carboxamide], the pIC50 is 7.00 to 7.82.

For the compound `O=C(NC1CC2(C1)CC(F)(c1n[nH]c(=O)c3ccccc13)C2)c1cnn2ccccc12` (stereo not drawn) [Example 164, N-(6-fluoro-6-(4-oxo-3,4-dihydrophthalazin-1-yl)spiro[3.3]heptan-2-yl)pyrazolo[1,5-α]pyridine-3-carboxamide], the pIC50 is 7.00 to 7.82.

Consider `O=C(N[C@H]1CC2(C1)C[C@H](c1n[nH]c(=O)c3ccccc31)C2)c1cnn2cc(N3CCCC3=O)ccc12` (stereo partly drawn) [Example 165, N-((aR)-6-(4-oxo-3,4-dihydrophthalazin-1-yl)spiro[3.3]heptan-2-yl)-6-(2-oxopyrrolidin-1-yl)pyrazolo[1,5-a]pyridine-3-carboxamide], for which the pIC50 was 7.82 to 8.29.

Regarding `O=C(NC1CC2(C1)CC(c1n[nH]c(=O)c3ccccc13)C2)c1cnn2cc(C3CC3)ccc12` (stereo not drawn) [Example 166, 6-cyclopropyl-N-((αR)-6-(4-oxo-3,4-dihydrophthalazin-1-yl)spiro[3.3]heptan-2-yl)pyrazolo[1,5-α]pyridine-3-carboxamide], the pIC50 was 8.70 to 9.70.

Consider `O=C(NC1CC2(C1)CC(c1n[nH]c(=O)c3ccccc13)C2)c1cnn2cc(-c3cnn(C(F)F)c3)ccc12` (stereo not drawn) [Example 167, 6-(1-(difluoromethyl)-1H-pyrazol-4-yl)-N-((αR)-6-(4-oxo-3,4-dihydrophthalazin-1-yl)spiro[3.3]heptan-2-yl)pyrazolo[1,5-α]pyridine-3-carboxamide], for which the pIC50 is 8.70 to 9.70.

Regarding `N#Cc1ccc2c(C(=O)NC3CC4(C3)CC(c3n[nH]c(=O)c5ccccc35)C4)cnn2c1` (stereo not drawn) [Example 168, 6-cyano-N-((αR)-6-(4-oxo-3,4-dihydrophthalazin-1-yl)spiro[3.3]heptan-2-yl)pyrazolo[1,5-α]pyridine-3-carboxamide], the pIC50 is 7.00 to 7.82.

Consider `O=C(NC1CC2(C1)CC(c1n[nH]c(=O)c3ccccc13)C2)c1cnn2cc(-n3ccccc3=O)ccc12` (stereo not drawn) [Example 169, N-((αR)-6-(4-oxo-3,4-dihydrophthalazin-1-yl)spiro[3.3]heptan-2-yl)-6-(2-oxopyridin-1(2H)-yl)pyrazolo[1,5-α]pyridine-3-carboxamide], for which the pIC50 is 7.82 to 8.29.

Regarding `Cn1cc(-c2ccc3c(C(=O)NC4CC5(C4)CC(c4n[nH]c(=O)c6ccccc46)C5)cnn3c2)cn1` (stereo not drawn) [Example 170, 6-(1-methyl-1H-pyrazol-4-yl)-N-((αR)-6-(4-oxo-3,4-dihydrophthalazin-1-yl)spiro[3.3]heptan-2-yl)pyrazolo[1,5-α]pyridine-3-carboxamide], the pIC50 was 8.70 to 9.70.

`O=C(NC1CC2(C1)CC(c1n[nH]c(=O)c3ccccc13)C2)c1cnn2cc(-c3cnn(CC(O)C(F)(F)F)c3)ccc12` [Example 171, N-((αR)-6-(4-oxo-3,4-dihydrophthalazin-1-yl)spiro[3.3]heptan-2-yl)-6-(1-((S)-3,3,3-trifluoro-2-hydroxypropyl)-1H-pyrazol-4-yl)pyrazolo[1,5-α]pyridine-3-carboxamide]: the pIC50 is 8.30 to 8.70.

Consider `O=C(NC1CC2(C1)CC(c1n[nH]c(=O)c3ccccc13)C2)c1cnn2cc(-c3c[nH]nc3C(F)(F)F)ccc12` (stereo not drawn) [Example 172, N-((αR)-6-(4-oxo-3,4-dihydrophthalazin-1-yl)spiro[3.3]heptan-2-yl)-6-(3-(trifluoromethyl)-1H-pyrazol-4-yl)pyrazolo[1,5-α]pyridine-3-carboxamide], for which the negative logarithm of the IC50 (pIC50) is 8.30 to 8.70.

Turning to `O=C(NC1CC2(C1)CC(c1n[nH]c(=O)c3ccccc13)C2)c1cnn2cc(-c3nccs3)ccc12` (stereo not drawn) [Example 173, N-((αR)-6-(4-oxo-3,4-dihydrophthalazin-1-yl)spiro[3.3]heptan-2-yl)-6-(thiazol-2-yl)pyrazolo[1,5-α]pyridine-3-carboxamide], the pIC50 is 8.70 to 9.70.

As to `O=C(NC1CC2(C1)CC(c1n[nH]c(=O)c3ccccc13)C2)c1cnn2cc(-c3cn[nH]c3)ccc12` (stereo not drawn) [Example 174, N-((αR)-6-(4-oxo-3,4-dihydrophthalazin-1-yl)spiro[3.3]heptan-2-yl)-6-(1H-pyrazol-4-yl)pyrazolo[1,5-α]pyridine-3-carboxamide], the pIC50 was 8.70 to 9.70.

Take `Cc1nnn(C)c1-c1ccc2c(C(=O)NC3CC4(C3)CC(c3n[nH]c(=O)c5ccccc35)C4)cnn2c1` (stereo not drawn) [Example 175, 6-(1,4-dimethyl-1H-1,2,3-triazol-5-yl)-N-((αR)-6-(4-oxo-3,4-dihydrophthalazin-1-yl)spiro[3.3]heptan-2-yl)pyrazolo[1,5-α]pyridine-3-carboxamide]: the pIC50 was 7.00 to 7.82.

`O=C(NC1CC2(C1)CC(c1n[nH]c(=O)c3ccccc13)C2)c1cnn2cc(-n3ccnc3)ccc12` (stereo not drawn) [Example 176, 6-(1H-imidazol-1-yl)-N-((αR)-6-(4-oxo-3,4-dihydrophthalazin-1-yl)spiro[3.3]heptan-2-yl)pyrazolo[1,5-α]pyridine-3-carboxamide]: the pIC50 is 7.82 to 8.29.

As for `O=C(N[C@H]1CC2(C1)C[C@H](c1n[nH]c(=O)c3ccccc31)C2)c1cnn2cc(-n3cccn3)ccc12` (stereo partly drawn) [Example 177, N-((αR)-6-(4-oxo-3,4-dihydrophthalazin-1-yl)spiro[3.3]heptan-2-yl)-6-(1H-pyrazol-1-yl)pyrazolo[1,5-α]pyridine-3-carboxamide], the pIC50 was 8.70 to 9.70.

`O=C(NC1CC2(C1)CC(c1n[nH]c(=O)c3ccccc13)C2)c1cnn2cc(-n3cncn3)ccc12` (stereo not drawn) [Example 178, N-((αR)-6-(4-oxo-3,4-dihydrophthalazin-1-yl)spiro[3.3]heptan-2-yl)-6-(1H-1,2,4-triazol-1-yl)pyrazolo[1,5-α]pyridine-3-carboxamide]: the pIC50 was 8.30 to 8.70.

`COCCOc1ccc2c(C(=O)NC3CC4(C3)CC(c3n[nH]c(=O)c5ccccc35)C4)cnn2c1` (stereo not drawn) [Example 179, 6-(2-methoxyethoxy)-N-((αR)-6-(4-oxo-3,4-dihydrophthalazin-1-yl)spiro[3.3]heptan-2-yl)pyrazolo[1,5-α]pyridine-3-carboxamide]: the pIC50 is 8.70 to 9.70.

Regarding `O=C(NC1CC2(C1)CC(c1n[nH]c(=O)c3ccccc13)C2)c1cnn2cc(-n3ccc(=O)cc3)ccc12` (stereo not drawn) [Example 180, N-((αR)-6-(4-oxo-3,4-dihydrophthalazin-1-yl)spiro[3.3]heptan-2-yl)-6-(4-oxopyridin-1(4H)-yl)pyrazolo[1,5-α]pyridine-3-carboxamide], the pIC50 is 7.00 to 7.82.

Consider `[H][C@]1(c2n[nH]c(=O)c3ccccc32)C[C@]2(C[C@@H](NC(=O)c3cnn4cc(OCCO)ccc34)C2)C1` (stereo partly drawn) [Example 181], for which the pIC50 was 8.70 to 9.70.

Turning to `O=C(N[C@H]1CC2(C1)C[C@H](c1n[nH]c(=O)c3ccccc31)C2)c1cnn2cc(OCCN3CC(F)C3)ccc12` (stereo partly drawn) [Example 182, 6-(2-(3-fluoroazetidin-1-yl)ethoxy)-N-((aR)-6-(4-oxo-3,4-dihydrophthalazin-1-yl)spiro[3.3]heptan-2-yl)pyrazolo[1,5-a]pyridine-3-carboxamide], the pIC50 is 8.30 to 8.70.

For `CN(C)CCOc1ccc2c(C(=O)NC3CC4(C3)CC(c3n[nH]c(=O)c5ccccc35)C4)cnn2c1` [Example 183, 6-(2-(dimethylamino)ethoxy)-N-((aR)-6-(4-oxo-3,4-dihydrophthalazin-1-yl)spiro[3.3]heptan-2-yl)pyrazolo[1,5-a]pyridine-3-carboxamide], the pIC50 was 8.30 to 8.70.
